The nature of the first test: blockers of orphan receptor GPR35 – imaging, image-based, set 2, SAR follow-up (AID 2480).
Settings: not given
As usually defined, the IC50 is the point on the concentration scale where inhibition reaches its midpoint. With `O=C(CCCN1C(=O)S/C(=C\C=C\c2ccccc2)C1=O)Nc1ccc(C(=O)O)cc1` [MLS000948015], the IC50 was 1.17 µM.
Consider `CCOC(=O)c1ccc(NC(=O)CCCN2C(=O)/C(=C/c3ccccc3)SC2=S)cc1` [ethyl 4-[4-[(5Z)-5-benzylidene-4-oxo-2-sulfanylidene-1,3-thiazolidin-3-yl]butanoylamino]benzoate], for which the IC50 was found to be 8.63 µM.
`Cc1ccc(OCCC(=O)NCCc2ccc(S(N)(=O)=O)cc2)cc1` [MLS-0213737.0001] gave an IC50 of over 32 µM.
Compound `COc1ccc(/C=C2\SC(=S)N(CCCC(=O)Nc3ccc(C(=O)O)c(O)c3)C2=O)cc1OC` [4-[4-[(5Z)-5-[(3,4-dimethoxyphenyl)methylidene]-4-oxo-2-sulfanylidene-1,3-thiazolidin-3-yl]butanoylamino]-2-hydroxybenzoic acid] had an IC50 of 0.151 µM.
On the same count and under the same terms, next, `Cc1ccc(/C=C2\SC(=S)N(CCCC(=O)Nc3cccc(C(=O)O)c3)C2=O)cc1` [MLS001034563]: 0.24 µM.
Same read-out and setting: then `CCc1ccc(NC(=O)CSc2nc3ccsc3c(=O)n2Cc2ccc(OC)cc2)cc1` [N-(4-ethylphenyl)-2-[[3-[(4-methoxyphenyl)methyl]-4-oxo-2-thieno[3,2-d]pyrimidinyl]thio]acetamide], with over 32 µM.
`Cn1cc(/C=C/c2cc[n+](C)cc2)c2cc(Cl)ccc21` [5-chloranyl-1-methyl-3-[(E)-2-(1-methylpyridin-1-ium-4-yl)ethenyl]indole;hydroiodide] displayed an IC50 of 5.17 µM. This counts as single-digit micromolar.
`COC(=O)CSc1nc2ccc(NC(=O)c3ccccc3C(=O)N3CCOCC3)cc2s1` [methyl 2-[[6-[(2-morpholin-4-ylcarbonylphenyl)carbonylamino]-1,3-benzothiazol-2-yl]sulfanyl]ethanoate] returned an IC50 of over 32 µM.
`c1ccc(-c2n[n+](-c3ccccc3)c(-c3ccccc3)s2)cc1`: the IC50 is over 32 µM.
The compound `Cc1ccc2[nH]c(C)c(/C=C/c3cc[n+](C)cc3)c2c1` showed an IC50 of 2.36 µM.
Compound `Cc1ccc(/C=C2\SC(=S)N(CCCC(=O)Nc3ccc(O)cc3)C2=O)cc1` [MLS000777252] came in with an IC50 of 1.42 µM.
The compound `COc1ccc(Cn2c(SCC(=O)Nc3ccc(C)c(C)c3)nc3ccsc3c2=O)cc1` came in with an IC50 of over 32 µM.
For the compound `COc1ccc(/C=C2\SC(=S)N(CCCC(=O)Nc3cccc(C(=O)O)c3)C2=O)cc1OC` [3-[4-[(5Z)-5-[(3,4-dimethoxyphenyl)methylidene]-4-oxidanylidene-2-sulfanylidene-1,3-thiazolidin-3-yl]butanoylamino]benzoic acid], the IC50 came out at 0.607 µM.
On the same count and under the same terms, then `Cc1ccc(Cn2ncc3c(N4CCN(c5ccccc5C)CC4)ncnc32)cc1` [1-(4-methylbenzyl)-4-[4-(2-methylphenyl)-1-piperazinyl]-1H-pyrazolo[3,4-d]pyrimidine], with 2.65 µM.
In turn, `Fc1ccc(N2CCN(c3ncnc4c3cnn4Cc3ccc(Cl)cc3Cl)CC2)cc1` [MLS-0435440.0001] came in with an IC50 of over 32 µM.
`O=C(Nc1ccc2nc(SCc3ccc(Cl)cc3)sc2c1)c1ccccc1C(=O)N1CCOCC1` came in with an IC50 of 0.554 µM.
Compound `Cc1ccc(C)c(OCCC(=O)NCCc2ccc(S(N)(=O)=O)cc2)c1` yielded an IC50 of over 32 µM.
The same measure, in the same setting: next, `O=C(CCCN1C(=O)/C(=C/c2ccccc2)SC1=S)Nc1ccc(O)cc1` [N-(4-hydroxyphenyl)-4-[(5Z)-4-oxo-5-(phenylmethylene)-2-sulfanylidene-3-thiazolidinyl]butanamide]: 8.71 µM; `COc1ccc(/C=C2\SC(=S)N(CCCC(=O)Nc3ccc(O)cc3)C2=O)cc1` [MLS-0304362.0001]: 1.16 µM; `O=C(CCCN1C(=O)/C(=C/c2ccc3c(c2)OCO3)SC1=S)Nc1cccc(C(=O)O)c1` [3-[[4-[(5Z)-5-(1,3-benzodioxol-5-ylmethylidene)-4-oxo-2-sulfanylidene-3-thiazolidinyl]-1-oxobutyl]amino]benzoic acid]: 0.983 µM.
Consider `COc1ccc(/C=C2/SC(=S)N(CCCC(=O)Nc3ccc(O)cc3)C2=O)cc1` [N-(4-hydroxyphenyl)-4-[(5E)-5-[(4-methoxyphenyl)methylidene]-4-oxidanylidene-2-sulfanylidene-1,3-thiazolidin-3-yl]butanamide], for which the IC50 is 1.07 µM.
Same read-out and setting: next, `C=CCn1c(C)c(/C=C/c2cc[n+](C)cc2)c2ccccc21` [2-methyl-3-[(E)-2-(1-methyl-4-pyridin-1-iumyl)ethenyl]-1-prop-2-enylindole;iodide]: 4.99 µM.
The same measure, in the same setting: then `O=C(Nc1ccc2nc(SCc3ccccc3)sc2c1)c1ccccc1C(=O)N1CCOCC1` [2-[4-morpholinyl(oxo)methyl]-N-[2-(phenylmethylthio)-1,3-benzothiazol-6-yl]benzamide], with 1.61 µM; and `CCOC(=O)c1ccc(NC(=O)CCCN2C(=O)/C(=C/c3ccc(C)cc3)SC2=S)cc1` [MLS-0435416.0001], with 2.6 µM.
Consider `O=C(Nc1ccc2nc(SCc3ccc(Cl)c(Cl)c3)sc2c1)c1ccccc1Br`, for which the IC50 was over 32 µM.
With `O=C(CCCN1C(=O)/C(=C\c2ccccc2)SC1=S)Nc1ccc(C(=O)O)cc1` [4-[[1-oxo-4-[(5E)-4-oxo-5-(phenylmethylene)-2-sulfanylidene-3-thiazolidinyl]butyl]amino]benzoic acid], the IC50 came out at 1.68 µM. This counts as single-digit micromolar.
On the same count and under the same terms, then `Cc1c(C(=O)Nc2ccc3c(c2)OCCO3)sc2ncnc(O)c12` [N-(2,3-dihydro-1,4-benzodioxin-6-yl)-5-methyl-4-oxo-3H-thieno[2,3-d]pyrimidine-6-carboxamide], with over 32 µM.
Turning to `O=C(CCCN1C(=O)/C(=C/c2ccc3c(c2)OCO3)SC1=S)Nc1ccc(C(=O)O)c(O)c1` [4-[[4-[(5Z)-5-(1,3-benzodioxol-5-ylmethylidene)-4-oxo-2-sulfanylidene-3-thiazolidinyl]-1-oxobutyl]amino]-2-hydroxybenzoic acid], the midpoint of inhibition, the IC50, lay at 0.3 µM.
The same measure, in the same setting: next, `COc1ccc(-c2nnc(-c3cccnc3)o2)cc1` [2-(4-methoxyphenyl)-5-pyridin-3-yl-1,3,4-oxadiazole]: over 32 µM; `O=C(CCCN1C(=O)S/C(=C/c2ccccc2)C1=S)Nc1ccc(C(=O)O)cc1` [MLS001167691]: 1.6 µM; `CCC(Sc1nc2ccsc2c(=O)n1Cc1ccc(C(=O)O)cc1)C(=O)Nc1ccc(C)c(Cl)c1` (configuration not stated): over 32 µM.
Compound `Cc1ccccc1N1CCN(c2ncnc3c2cnn3Cc2ccc(Cl)cc2)CC1` [1-[(4-chlorophenyl)methyl]-4-[4-(2-methylphenyl)-1-piperazinyl]pyrazolo[3,4-d]pyrimidine] yielded an IC50 of 2.22 µM.
On the same count and under the same terms, next, `CC(/C=C1\SC(=S)N(CCCC(=O)Nc2ccc(C(=O)O)cc2)C1=O)=C\c1ccccc1` [4-[4-[(5Z)-5-[(E)-2-methyl-3-phenyl-prop-2-enylidene]-4-oxidanylidene-2-sulfanylidene-1,3-thiazolidin-3-yl]butanoylamino]benzoic acid]: 0.105 µM; `O=C(CCCN1C(=O)/C(=C/c2ccc3c(c2)OCO3)SC1=S)Nc1ccc(C(=O)O)cc1` [SMR000664854]: 1.18 µM; `COc1cccc(/C=C2\SC(=S)N(CCCC(=O)Nc3ccc(C(=O)O)cc3)C2=O)c1` [4-[4-[(5Z)-5-[(3-methoxyphenyl)methylidene]-4-oxo-2-sulfanylidene-1,3-thiazolidin-3-yl]butanoylamino]benzoic acid]: 0.651 µM.
`Cc1nc(N2CCC(C)CC2)c2c(C)c(C(=O)Nc3ccc(C)c(F)c3)sc2n1` [MLS-0244945.0001] registered an IC50 of 6.1 µM.
In turn, `CC(C)COc1ccc(-c2nnc(-c3ccc(Cl)nc3)o2)cc1` [MLS-0435441.0001] displayed an IC50 of over 32 µM.
Consider `O=C(CCCN1C(=O)/C(=C/c2ccccc2)SC1=S)Nc1ccc(C(=O)O)c(O)c1` [4-[4-[(5Z)-5-benzylidene-4-oxo-2-sulfanylidene-1,3-thiazolidin-3-yl]butanoylamino]-2-hydroxybenzoic acid], for which it took 0.295 µM to reach half-maximal inhibition (IC50).
In turn, `Clc1ccc(Cn2ncc3c(N4CCN(c5ccccc5)CC4)ncnc32)cc1` showed an IC50 of 7.17 µM.
`Cc1nc(N2CCC(C)CC2)c2c(C)c(C(=O)Nc3ccc4c(c3)OCCO4)sc2n1` [N-(2,3-dihydro-1,4-benzodioxin-6-yl)-2,5-dimethyl-4-(4-methyl-1-piperidinyl)-6-thieno[2,3-d]pyrimidinecarboxamide]: it took 1.88 µM to reach half-maximal inhibition (IC50). Compared with the last compound, the IC50 is about 3.8-fold lower.
Compound `CCc1ccc(/C=C2\SC(=S)N(CCCC(=O)Nc3ccc(C(=O)O)cc3)C2=O)cc1` [SMR000646238] came in with an IC50 of 0.0718 µM.
The same measure, in the same setting: then `O=C(CCCN1C(=O)S/C(=C/C=C/c2ccccc2)C1=O)Nc1ccc(C(=O)O)cc1` [4-[4-[(5E)-2,4-dioxo-5-[(E)-3-phenylprop-2-enylidene]-1,3-thiazolidin-3-yl]butanoylamino]benzoic acid], with 1.17 µM; and `Cc1ccccc1OCCC(=O)NCCc1ccc(S(N)(=O)=O)cc1` [MLS-0213188.0001], with over 32 µM.
`Clc1ccccc1Cn1ncc2c(N3CCN(c4ccccc4)CC3)ncnc21`: the IC50 was over 32 µM.
`O=C(CCCN1C(=O)/C(=C\c2ccccc2)SC1=S)Nc1cccc(C(=O)O)c1` [3-[4-(5-Benzylidene-4-oxo-2-thioxo-thiazolidin-3-yl)-butyrylamino]-benzoic acid]: the IC50 turned out to be 1.6 µM. In other words, the single-digit micromolar range.

The test is the same for the next values; noted with them: inactive by the depositor's call.
`c1ccc(Cn2ncc3c(N4CCN(c5ccccc5)CC4)ncnc32)cc1` [1-(phenylmethyl)-4-(4-phenylpiperazin-1-yl)pyrazolo[3,4-d]pyrimidine] came in with an IC50 of 17 µM.
Turning to `CCOc1ccc(NC(=O)CSc2nc3ccsc3c(=O)n2Cc2ccc(C(=O)O)cc2)cc1`, the IC50 came to 12.5 µM.
Regarding `Cc1nc(N2CCC(C)CC2)c2c(C)c(C(=O)Nc3ccccc3C(F)(F)F)sc2n1` [SMR000312025], the IC50 worked out at 10.2 µM.
On the same count and under the same terms, then `O=C(CCCN1C(=O)/C(=C/c2cccs2)SC1=S)Nc1ccc(O)cc1`, with 10.7 µM; and `O=C(CCCN1C(=O)/C(=C\c2ccccc2)SC1=S)Nc1ccc(O)cc1` [N-(4-hydroxyphenyl)-4-[(5E)-4-oxidanylidene-5-(phenylmethylidene)-2-sulfanylidene-1,3-thiazolidin-3-yl]butanamide], with 11.8 µM.
As for `Cc1ccc(Cn2ncc3c(N4CCN(c5ccc(C)cc5)CC4)ncnc32)cc1`, the IC50 was 17.7 µM.
`O=C(CCCN1C(=O)/C(=C\c2cccs2)SC1=S)Nc1ccc(O)cc1` [N-(4-hydroxyphenyl)-4-[(5E)-4-oxo-2-sulfanylidene-5-(thiophen-2-ylmethylidene)-1,3-thiazolidin-3-yl]butanamide] displayed an IC50 of 11 µM.

For the origin of these results see BindingDB's records for doi:10.7270/Q2F47MKR (Burnham Center For Chemical Genomics, 2010).
